The record followed here is US8242150B2, “Triazole derivatives for treating alzheimer'S disease and related conditions” (Merck Sharp & Dohme Corp., priority 2007, dated 2012).

Where “and” joins values, the source holds several entries; their conditions need not be identical. Equal values may be shown once. Where a name gives a salt, the structure may show the parent alone.

What is called IC50 is the point on the concentration scale where inhibition reaches its midpoint.

One assay relates to Aβ(1-42). The assay can be described thus: Cell-based γ-secretase assay, Aβ(42) detection. Details: species or system Human. Particulars: Homo sapiens, SH-SY5Y, SH-SY5Y cells overexpressing SPA4CT; two values in a cell = individual enantiomers; read-out: Aβ42 IC50. As to the method: Cell-Based γ-Secretase Assay
Human SH-SY5Y neuroblastoma cells overexpressing the direct γ-secretase substrate SPA4CT were induced with sodium butyrate (10 mM) for 4 hours prior to plating. Cells were plated at 35,000 cells/well/100 μl in 96-well plates in phenol red-free MEM/10% FBS, 50 mM HEPES, 1% Glutamine and incubated for 2 hrs at 37° C., 5% CO2.
Compounds for testing were diluted into Me2SO to give a ten point dose-response curve. Typically 10 μl of these diluted compounds in Me2SO were further diluted into 182 μl dilution buffer (phenol red-free MEM/10% FBS, 50 mM HEPES, 1% Glutamine) and 10 μl of each dilution was added to the cells in 96-well plates (yielding a final Me2SO concentration of 0.5%). Appropriate vehicle and inhibitor controls were used to determine the window of the assay.
After incubation overnight at 37° C., 5% CO2, 25 μl and 50 μl media were transferred into a standard Meso avidin-coated 96-well plate for detection of Aβ(40) and Aβ(42) peptides, respectively. 25 μl Meso Assay buffer (PBS, 2% BSA, 0.2% Tween-20) was added to the Aβ(40) wells followed by the addition of 25 μl of the respective antibody premixes to the wells:
Aβ(42) premix: 1 μg/ml ruthenylated G2-11 antibody, 4 μg/ml; and biotinylated 4G8 antibody diluted in Origen buffer
(Biotinylated 4G8 antibody supplied by Signet Pathology Ltd; G2-10 and G2-11 antibodies supplied by Chemicon)
After overnight incubation of the assay plates on a shaker at 4° C., the Meso Scale Sector 6000 Imager was calibrated according to the manufacturer's instructions. After washing the plates 3 times with 150 μl of PBS per well, 150 μl Meso Scale Discovery read buffer was added to each well and the plates were read on the Sector 6000 Imager according to the manufacturer's instructions.
LD50 and IC50 values for inhibition of Aβ(40) and Aβ(42) were calculated by nonlinear regression fit analysis using the appropriate software (eg. Excel fit). The total signal and the background were defined by the corresponding Me2SO and inhibitor controls.
As to `COc1cc(-c2cn(C(F)(F)c3ccc(C(F)F)cc3)nn2)ccc1-n1cnc(C)c1` [Example 7, 1-[(4-Difluoromethyl-phenyl)-difluoro-methyl]-4-[3-methoxy-4-(4-methyl-imidazol-1-yl)-phenyl]-1H-[1,2,3]triazole trifluoracetate salt], the IC50 was determined as 2240 nM.
As to `COc1cc(-c2cn(CC(=O)N(c3ccccc3)C3CCCCC3)nn2)ccc1-n1cnc(C)c1` [Example 1, N-cyclohexyl-2-{4-[3-methoxy-4-(4-methyl-imidazol-1-yl)-phenyl]-1,2,3-triazol-1-yl}-N-phenyl-acetamide], the half-inhibitory concentration (IC50) was determined as 616 nM.
Still for that read-out and setting: the same measure for `COc1cc(-c2cn(C(F)(F)C(=O)NCc3ccc(F)cc3)nn2)ccc1-n1cnc(C)c1` [Example 9, 2,2-Difluoro-N-(4-fluoro-benzyl)-2-{4-[3-methoxy-4-(4-methyl-imidazol-1-yl)-phenyl]-[1,2,3]triazol-1-yl}-acetamide trifluoroacetate salt]: 933 nM; for `COc1cc(-c2cn(CC(=O)N3CCCC4CCCCC43)nn2)ccc1-n1cnc(C)c1` (stereo not shown) [Example 8, 2-{4-[3-Methoxy-4-(4-methyl-imidazol-1-yl)-phenyl]-[1,2,3]triazol-1-yl}-1-(octahydro-quinolin-1-yl)-ethanone trifluoroacetate salt]: 1070 nM; for `COc1cc(-c2cn(CC(=O)N(CC(F)(F)F)c3ccc(F)c(Cl)c3)nn2)ccc1-n1cnc(C)c1` [Example 12, N-(3-chloro-4-fluorophenyl)-2-{4-[3-methoxy-4-(4-methyl-1H-imidazol-1-yl)phenyl]-1H-1,2,3-triazol-1-yl}-N-(2,2,2-trifluoroethyl)acetamide trifluoroacetate salt]: 84 nM.
The same measure, in the same setting: in the case of `COc1cc(-c2cn(C(C)c3ccccc3)nn2)ccc1-n1cnc(C)c1` (stereo not shown) [Example 5, 4-[3-Methoxy-4-(4-methyl-imidazol-1-yl)-phenyl]-1-(1-phenyl-ethyl)-1H-[1,2,3]triazole trifluoroacetate salt] it was 2660 nM; in that of `COc1cc(-c2cn(CSc3ccccc3)nn2)ccc1-n1cnc(C)c1` [Example 4, 4-[3-Methoxy-4-(4-methyl-imidazol-1-yl)-phenyl]-1-phenylsulfanylmethyl-1H-[1,2,3]triazole trifluoroacetate salt], 529 nM.

Staying with this assay, now noted: Homo sapiens, SH-SY5Y, read-out: Aβ42 IC50.
As for `COc1cc(-c2cn(Cc3ccc(-c4nc5ccccc5o4)cc3)nn2)ccc1-n1cnc(C)c1` [Example 6, 2-(4-{4-[3-Methoxy-4-(4-methyl-imidazol-1-yl)-phenyl]-[1,2,3]triazol-1-ylmethyl}-phenyl)-benzooxazole trifluoroacetate salt], the IC50 came to 177 nM.
As to `COc1cc(-c2cn(Cc3ccc(C(C)(C)C)cc3)nn2)ccc1-n1cnc(C)c1` [Example 3, 1-(4-tert-butyl-benzyl)-4-[3-methoxy-4-(4-methyl-imidazole-1-yl)-phenyl]-1H-[1,2,3]triazole trifluoroacetate salt], the IC50 is 310 nM.

The assay is the same for the next values; noted with them: SH-SY5Y cells overexpressing SPA4CT; two values in a cell = individual enantiomers; read-out: Aβ42 IC50.
As for `COc1cc(-c2cn(C3CCc4ccccc4NC3=O)nn2)ccc1-n1cnc(C)c1` (racemic) [Example 2, (R) and (S)-3-{4-[3-methoxy-4-(4-methyl-imidazol-1-yl)-phenyl]-1,2,3-triazol-1-yl}-1,3,4,5-tetrahydro-1-benzazepin-2-one], the IC50 is 386 nM and 1330 nM.
